According to ChEMBL document CHEMBL1671643, “Relative strengths of the class 1 integron promoter hybrid 2 and the combinations of strong and hybrid 1 with an active p2 promoter” (2009):
≈ marks a conversion by molar mass, not a printed value.

Columns and labels:
Type in all cases: functional
[1] = test system: Escherichia coli; assay: Antimicrobial activity against Escherichia coli MC4100 harboring promoter hybrid 2 in beta-lactamase GES-1 by Etest
[2] = test system: Escherichia coli; assay: Antimicrobial activity against Escherichia coli MC4100 expressing promoterless beta-lactamase GES-1 by Etest
[3] = test system: Escherichia coli; assay: Antimicrobial activity against Escherichia coli MC4100 harboring strong promoter in beta-lactamase GES-1 by Etest
[4] = test system: Escherichia coli; assay: Antimicrobial activity against Escherichia coli MC4100 harboring weak promoter and active promoter P2 in beta-lactamase GES-1 by Etest
[5] = test system: Escherichia coli; assay: Antimicrobial activity against Escherichia coli MC4100 harboring promoter hybrid 1 in beta-lactamase GES-1 by Etest
[6] = test system: Escherichia coli; assay: Antimicrobial activity against Escherichia coli MC4100 harboring a weak promoter in beta-lactamase GES-1 by Etest
[7] = test system: Escherichia coli; assay: Antimicrobial activity against Escherichia coli MC4100 harboring strong promoter and active promoter P2 in beta-lactamase GES-1 by Etest
[8] = test system: Escherichia coli; assay: Antimicrobial activity against Escherichia coli MC4100 harboring promoter hybrid 1 and active promoter P2 in beta-lactamase GES-1 by Etest

Row | Structure (SMILES) | MIC [1] [µg/mL] | MIC [2] [µg/mL] | MIC [3] [µg/mL] | MIC [4] [µg/mL] | MIC [5] [µg/mL] | MIC [6] [µg/mL] | MIC [7] [µg/mL] | MIC [8] [µg/mL]
1 | CC1(C)S[C@@H]2[C@H](NC(=O)[C@H](N)c3ccc(O)cc3)C(=O)N2[C@H]1C(=O)O [AMOXICILLIN] | > 256 | 4 (≈ 10.9 µM) | > 256 | > 256 | > 256 | > 256 | > 256 | > 256
2 | C[C@H]1[C@H](NC(=O)/C(=N\OC(C)(C)C(=O)O)c2csc(N)n2)C(=O)N1S(=O)(=O)O [AZTREONAM] | 0.094 (≈ 0.216 µM) |  | 0.19 (≈ 0.436 µM) | 0.094 (≈ 0.216 µM) | 0.047 (≈ 0.108 µM) | 0.047 (≈ 0.108 µM) | 0.25 (≈ 0.574 µM) | 0.125 (≈ 0.287 µM)
3 | N[C@@H](C(=O)N[C@@H]1C(=O)N2C(C(=O)O)=C(Cl)CS[C@H]12)c1ccccc1 [CEFACLOR ANHYDROUS] | 24 (≈ 65.3 µM) | 1.5 (≈ 4.08 µM) | 256 (≈ 696 µM) | 24 (≈ 65.3 µM) | 8 (≈ 21.8 µM) | 6 (≈ 16.3 µM) | 256 (≈ 696 µM) | 24 (≈ 65.3 µM)
4 | CO/N=C(\C(=O)N[C@@H]1C(=O)N2C(C(=O)[O-])=C(C[N+]3(C)CCCC3)CS[C@H]12)c1csc(N)n1 [CEFEPIME] | 0.125 (≈ 0.26 µM) | 0.032 (≈ 0.0666 µM) | 0.19 (≈ 0.395 µM) | 0.094 (≈ 0.196 µM) | 0.064 (≈ 0.133 µM) | 0.032 (≈ 0.0666 µM) | 0.19 (≈ 0.395 µM) | 0.125 (≈ 0.26 µM)
5 | CC(C)(O/N=C(\C(=O)N[C@@H]1C(=O)N2C(C(=O)[O-])=C(C[n+]3ccccc3)CS[C@H]12)c1csc(N)n1)C(=O)O [CEFTAZIDIME] | 4 (≈ 7.32 µM) | 0.064 (≈ 0.117 µM) | 12 (≈ 22 µM) | 4 (≈ 7.32 µM) | 1.5 (≈ 2.74 µM) | 0.75 (≈ 1.37 µM) | 16 (≈ 29.3 µM) | 6 (≈ 11 µM)
6 | CO/N=C(\C(=O)N[C@@H]1C(=O)N2C(C(=O)O)=C(COC(N)=O)CS[C@H]12)c1ccco1 [CEFUROXIME] | 128 (≈ 302 µM) | 2 (≈ 4.71 µM) | > 256 | 96 (≈ 226 µM) | 32 (≈ 75.4 µM) | 8 (≈ 18.9 µM) | > 256 | 256 (≈ 603 µM)
7 | CCN1CCN(C(=O)N[C@@H](C(=O)N[C@@H]2C(=O)N3[C@@H]2SC(C)(C)[C@@H]3C(=O)O)c2ccccc2)C(=O)C1=O [PIPERACILLIN] | 12 (≈ 23.2 µM) | 1 (≈ 1.93 µM) | 24 (≈ 46.4 µM) | 12 (≈ 23.2 µM) | 4 (≈ 7.73 µM) | 2 (≈ 3.86 µM) | 24 (≈ 46.4 µM) | 16 (≈ 30.9 µM)
